Test results taken from PubChem BioAssay (NCI).
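The compound was tested at five concentrations on cells cultured in 96-well plates, with a 48-hour exposure period. TGI: total growth inhibition.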

Columns and labels:
Assay in all cases: DTP human tumour cell line panel, 48 h
BT-549 breast = tested on: BT-549 breast
HOP-92 NSCLC = tested on: HOP-92 NSCLC
KM12 colon = tested on: KM12 colon
M14 melanoma = tested on: M14 melanoma
MDA-MB-231 breast = tested on: MDA-MB-231 breast
NCI-H23 lung = tested on: NCI-H23 lung
NCI-H460 lung = tested on: NCI-H460 lung
SK-MEL-2 melanoma = tested on: SK-MEL-2 melanoma
T-47D breast = tested on: T-47D breast
UO-31 renal = tested on: UO-31 renal

Q: How did the TGI (BT-549 breast) turn out when `NN/C(=N\S(=O)(=O)c1cc(Cl)c(Oc2ccc([N+](=O)[O-])cc2Cl)c(Cl)c1)Nc1ccc(Cl)cc1` was run?
A: Its TGI is 40.9 µM.

Q: What about the TGI (HOP-92 NSCLC) of the same molecule?
A: The TGI was 38.9 µM.

Q: And the TGI (KM12 colon)?
A: The TGI was 42.1 µM.

Q: And the TGI (M14 melanoma)?
A: The TGI was 31.2 µM.

Q: What about the TGI (MDA-MB-231 breast) of the same molecule?
A: Its TGI is 39.9 µM.

Q: And the TGI (NCI-H23 lung)?
A: The TGI was 31.4 µM.

Q: What about the TGI (NCI-H460 lung) of the same molecule?
A: Its TGI is 31.9 µM.

Q: What about the TGI (SK-MEL-2 melanoma) of the same molecule?
A: The TGI was 35.3 µM.

Q: What about the TGI (T-47D breast) of the same molecule?
A: Its TGI is 56.5 µM.

Q: What about the TGI (UO-31 renal) of the same molecule?
A: The TGI was 32.3 µM.

Q: With `CCN(CC)c1ccc(/C=C/C2=NN(c3cccc(S(=O)(=O)O)c3)C3(C2)C(Cl)C(=O)N3c2nc3ccccc3s2)cc1` (stereo not given) as the molecule, how does the TGI (BT-549 breast) read?
A: Its TGI is 22.7 µM.

Q: And the TGI (HOP-92 NSCLC)?
A: Its TGI is 15.3 µM.

Q: What about the TGI (KM12 colon) of the same molecule?
A: The TGI was 20.9 µM.

Q: And the TGI (M14 melanoma)?
A: Its TGI is 28.1 µM.

Q: And the TGI (MDA-MB-231 breast)?
A: Its TGI is 27 µM.

Q: And the TGI (NCI-H23 lung)?
A: Its TGI is 22.8 µM.

Q: And the TGI (NCI-H460 lung)?
A: Its TGI is 25.8 µM.

Q: And the TGI (SK-MEL-2 melanoma)?
A: Its TGI is 29.3 µM.

Q: What about the TGI (T-47D breast) of the same molecule?
A: Its TGI is 12.9 µM.

Q: And the TGI (UO-31 renal)?
A: The TGI was 3.6 µM.

Q: For `O=C(O)CCC(=O)Nc1ccc2c(c1)S(=O)(=O)N(CC(=O)O)C2=O`, which TGI (BT-549 breast) is on record?
A: The TGI was over 100 µM.

Q: What about the TGI (HOP-92 NSCLC) of the same molecule?
A: Its TGI is over 100 µM.

Q: And the TGI (KM12 colon)?
A: The TGI was over 100 µM.

Q: And the TGI (M14 melanoma)?
A: Its TGI is over 100 µM.

Q: And the TGI (MDA-MB-231 breast)?
A: Its TGI is over 100 µM.

Q: What about the TGI (NCI-H23 lung) of the same molecule?
A: Its TGI is over 100 µM.

Q: What about the TGI (NCI-H460 lung) of the same molecule?
A: The TGI was over 100 µM.

Q: What about the TGI (SK-MEL-2 melanoma) of the same molecule?
A: Its TGI is over 100 µM.

Q: And the TGI (T-47D breast)?
A: Its TGI is over 100 µM.

Q: What about the TGI (UO-31 renal) of the same molecule?
A: The TGI was over 100 µM.

Q: With `O=c1cc(-c2ccc(O)c(O)c2)oc2cc(OC3OC(CO)C(O)C(O)C3O)cc(O)c12` (stereo not given) as the molecule, how does the TGI (BT-549 breast) read?
A: The TGI was over 100 µM.

Q: What about the TGI (HOP-92 NSCLC) of the same molecule?
A: Its TGI is over 100 µM.

Q: What about the TGI (KM12 colon) of the same molecule?
A: The TGI was over 100 µM.

Q: What about the TGI (M14 melanoma) of the same molecule?
A: Its TGI is over 100 µM.

Q: And the TGI (MDA-MB-231 breast)?
A: The TGI was over 100 µM.

Q: What about the TGI (NCI-H23 lung) of the same molecule?
A: The TGI was over 100 µM.

Q: And the TGI (NCI-H460 lung)?
A: The TGI was over 100 µM.

Q: What about the TGI (SK-MEL-2 melanoma) of the same molecule?
A: The TGI was over 100 µM.

Q: And the TGI (T-47D breast)?
A: The TGI was over 100 µM.

Q: And the TGI (UO-31 renal)?
A: The TGI was over 100 µM.

Q: For `COc1ccc(NC=O)c(C(O)CCNC(C)=O)c1` (stereo not given), which TGI (BT-549 breast) is on record?
A: Its TGI is over 100 µM.

Q: And the TGI (HOP-92 NSCLC)?
A: Its TGI is over 100 µM.

Q: And the TGI (KM12 colon)?
A: Its TGI is over 100 µM.

Q: What about the TGI (M14 melanoma) of the same molecule?
A: Its TGI is over 100 µM.

Q: What about the TGI (MDA-MB-231 breast) of the same molecule?
A: The TGI was over 100 µM.

Q: What about the TGI (NCI-H23 lung) of the same molecule?
A: Its TGI is over 100 µM.

Q: And the TGI (NCI-H460 lung)?
A: The TGI was over 100 µM.

Q: And the TGI (SK-MEL-2 melanoma)?
A: The TGI was over 100 µM.

Q: And the TGI (T-47D breast)?
A: The TGI was over 100 µM.

Q: And the TGI (UO-31 renal)?
A: The TGI was over 100 µM.

Q: `Cc1c(-c2ccccc2)c(-c2ccc(OCCN(C)C)cc2)n2ccccc12` was tested. Which TGI (BT-549 breast) did it give?
A: The TGI was 18.7 µM.

Q: What about the TGI (HOP-92 NSCLC) of the same molecule?
A: The TGI was 24.6 µM.

Q: What about the TGI (KM12 colon) of the same molecule?
A: Its TGI is 15.1 µM.

Q: What about the TGI (M14 melanoma) of the same molecule?
A: Its TGI is 3.45 µM.

Q: What about the TGI (MDA-MB-231 breast) of the same molecule?
A: The TGI was 23.6 µM.

Q: And the TGI (NCI-H23 lung)?
A: The TGI was 32 µM.

Q: And the TGI (NCI-H460 lung)?
A: Its TGI is 7.3 µM.

Q: And the TGI (SK-MEL-2 melanoma)?
A: The TGI was 21.2 µM.

Q: What about the TGI (T-47D breast) of the same molecule?
A: The TGI was 22.9 µM.

Q: What about the TGI (UO-31 renal) of the same molecule?
A: The TGI was 23.7 µM.

Q: `COc1ccc(/C=C/C(=O)NCC(NC(=O)/C=C/c2ccc(OC)c(OC)c2)C(=O)O)cc1OC` (stereo not given) was tested. Which TGI (BT-549 breast) did it give?
A: The TGI was over 100 µM.

Q: What about the TGI (HOP-92 NSCLC) of the same molecule?
A: The TGI was 0.74 µM.

Q: And the TGI (KM12 colon)?
A: Its TGI is over 100 µM.

Q: What about the TGI (M14 melanoma) of the same molecule?
A: The TGI was over 100 µM.

Q: And the TGI (MDA-MB-231 breast)?
A: The TGI was over 100 µM.

Q: And the TGI (NCI-H23 lung)?
A: Its TGI is over 100 µM.

Q: And the TGI (NCI-H460 lung)?
A: The TGI was over 100 µM.

Q: What about the TGI (SK-MEL-2 melanoma) of the same molecule?
A: The TGI was over 100 µM.

Q: What about the TGI (T-47D breast) of the same molecule?
A: Its TGI is over 100 µM.

Q: And the TGI (UO-31 renal)?
A: The TGI was over 100 µM.

Q: `Cc1ccc2c(c1)C(C1Cc3c(C)cccc3C1=O)OC2=O` (stereo not given) was tested. Which TGI (BT-549 breast) did it give?
A: The TGI was over 100 µM.

Q: What about the TGI (HOP-92 NSCLC) of the same molecule?
A: The TGI was over 100 µM.

Q: What about the TGI (KM12 colon) of the same molecule?
A: Its TGI is over 100 µM.

Q: And the TGI (M14 melanoma)?
A: The TGI was over 100 µM.

Q: What about the TGI (MDA-MB-231 breast) of the same molecule?
A: Its TGI is over 100 µM.

Q: What about the TGI (NCI-H23 lung) of the same molecule?
A: Its TGI is over 100 µM.

Q: What about the TGI (NCI-H460 lung) of the same molecule?
A: Its TGI is over 100 µM.

Q: And the TGI (SK-MEL-2 melanoma)?
A: The TGI was over 100 µM.

Q: What about the TGI (T-47D breast) of the same molecule?
A: Its TGI is over 100 µM.

Q: And the TGI (UO-31 renal)?
A: The TGI was over 100 µM.

Q: Which results are given for `O=C(Nc1ccccc1)N1CCNC1=S`?
A: TGI (BT-549 breast): > 100 µM; TGI (HOP-92 NSCLC): > 100 µM; TGI (KM12 colon): > 100 µM; TGI (M14 melanoma): > 100 µM; TGI (MDA-MB-231 breast): > 100 µM; TGI (NCI-H23 lung): > 100 µM; TGI (NCI-H460 lung): > 100 µM; TGI (SK-MEL-2 melanoma): > 100 µM; TGI (T-47D breast): > 100 µM; TGI (UO-31 renal): > 100 µM

Q: What does the source list for `Cn1c(=O)nc2n(CCO)c(-c3ccccc3)c(-c3ccccc3)nc-2c1=O`?
A: TGI (BT-549 breast): > 100 µM; TGI (HOP-92 NSCLC): > 100 µM; TGI (KM12 colon): > 100 µM; TGI (M14 melanoma): > 100 µM; TGI (MDA-MB-231 breast): > 100 µM; TGI (NCI-H23 lung): > 100 µM; TGI (NCI-H460 lung): > 100 µM; TGI (SK-MEL-2 melanoma): > 100 µM; TGI (T-47D breast): > 100 µM; TGI (UO-31 renal): > 100 µM

Q: `O=C(/C=C/c1ccc(O)c(O)c1)NC(CO)C(=O)O` (stereo not given) was tested. Which TGI (BT-549 breast) did it give?
A: The TGI was over 100 µM.

Q: What about the TGI (HOP-92 NSCLC) of the same molecule?
A: The TGI was over 100 µM.

Q: And the TGI (KM12 colon)?
A: Its TGI is over 100 µM.

Q: What about the TGI (M14 melanoma) of the same molecule?
A: The TGI was over 100 µM.

Q: And the TGI (MDA-MB-231 breast)?
A: The TGI was over 100 µM.

Q: What about the TGI (NCI-H23 lung) of the same molecule?
A: The TGI was over 100 µM.

Q: And the TGI (NCI-H460 lung)?
A: The TGI was over 100 µM.

Q: What about the TGI (SK-MEL-2 melanoma) of the same molecule?
A: Its TGI is over 100 µM.

Q: What about the TGI (T-47D breast) of the same molecule?
A: Its TGI is over 100 µM.

Q: And the TGI (UO-31 renal)?
A: The TGI was over 100 µM.

Q: With `CN(CCO)CC(=O)CC(O)(C(F)(F)F)C(F)(F)F` as the molecule, how does the TGI (BT-549 breast) read?
A: Its TGI is over 100 µM.

Q: And the TGI (HOP-92 NSCLC)?
A: The TGI was 54.2 µM.

Q: And the TGI (KM12 colon)?
A: Its TGI is over 100 µM.

Q: And the TGI (M14 melanoma)?
A: The TGI was over 100 µM.

Q: And the TGI (MDA-MB-231 breast)?
A: The TGI was over 100 µM.

Q: And the TGI (NCI-H23 lung)?
A: The TGI was 60.2 µM.

Q: What about the TGI (NCI-H460 lung) of the same molecule?
A: Its TGI is over 100 µM.

Q: What about the TGI (SK-MEL-2 melanoma) of the same molecule?
A: The TGI was 95.3 µM.

Q: And the TGI (T-47D breast)?
A: Its TGI is over 100 µM.

Q: What about the TGI (UO-31 renal) of the same molecule?
A: The TGI was over 100 µM.

Q: Which TGI (BT-549 breast) does the source give for `N[C@@H]1C[C@H](N)c2c(Cl)sc(Cl)c21` here?
A: Its TGI is over 100 µM.

Q: What about the TGI (HOP-92 NSCLC) of the same molecule?
A: Its TGI is over 100 µM.

Q: And the TGI (KM12 colon)?
A: Its TGI is over 100 µM.

Q: And the TGI (M14 melanoma)?
A: The TGI was over 100 µM.

Q: And the TGI (MDA-MB-231 breast)?
A: The TGI was over 100 µM.

Q: And the TGI (NCI-H23 lung)?
A: Its TGI is over 100 µM.

Q: What about the TGI (NCI-H460 lung) of the same molecule?
A: Its TGI is over 100 µM.

Q: And the TGI (SK-MEL-2 melanoma)?
A: The TGI was over 100 µM.

Q: What about the TGI (T-47D breast) of the same molecule?
A: Its TGI is over 100 µM.

Q: What about the TGI (UO-31 renal) of the same molecule?
A: The TGI was over 100 µM.
